Test: In vivo elution of minocycline from the implant device
Settings: within 72 hours
Procedure: The final implant device prepared above was pressed onto a silicone-release liner under normal ambient conditions (30-40% relative humidity). The implant device was vacuum sealed in foil pouches (with argon backflow) in a dry room (<20% relative humidity). The implant device was sterilized using 22-28 kGy of gamma radiation at a slow dose rate of 4-6 kGy/hour. Gamma irradiation was performed on dry ice, but can also be performed at ambient temperature. The bioactive agent content of the implant device was within +/−10% of the target dose. Greater than 80% minocycline eluted in vivo within 72 hours.

In the case of `CN(C)c1ccc(O)c2c1C[C@H]1C[C@H]3[C@H](N(C)C)C(O)=C(C(N)=O)C(=O)[C@@]3(O)C(O)=C1C2=O` [Minocycline], the “minocycline eluted in vivo” value is reported as “Greater than 80%”.

— US9598532B2, “Terpolymers as pressure-sensitive adhesives” (Surmodics, Inc., priority 2010, dated 2017)
